Changes are numbered by the printed parent chain.
Tests used:
[1] = molecular target: T1, HpHtrA S164A (Helicobacter pylori, UniProt G2J5T2, S164A); test: thermal shift assay; assay type: binding; set-up: (HpHtrA, G18-K475, UniProt G2J5T2); GST (N, cleaved yes); made in house; host or cells: E. coli BL21
T1 sequence (G2J5T2 18-475 S164A): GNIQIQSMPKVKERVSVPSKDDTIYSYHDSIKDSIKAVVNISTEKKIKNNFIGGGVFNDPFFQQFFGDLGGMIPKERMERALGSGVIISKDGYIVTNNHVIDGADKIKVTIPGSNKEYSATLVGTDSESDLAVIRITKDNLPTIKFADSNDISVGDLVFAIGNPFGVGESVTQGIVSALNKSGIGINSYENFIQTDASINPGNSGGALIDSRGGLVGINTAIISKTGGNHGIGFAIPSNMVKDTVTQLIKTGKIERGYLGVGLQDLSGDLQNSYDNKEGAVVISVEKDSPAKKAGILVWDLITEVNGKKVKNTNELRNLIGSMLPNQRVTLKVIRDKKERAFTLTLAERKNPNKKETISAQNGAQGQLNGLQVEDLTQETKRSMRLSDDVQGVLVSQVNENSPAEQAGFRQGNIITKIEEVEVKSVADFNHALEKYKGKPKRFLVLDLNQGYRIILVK
Description: Recombinant HpHtrA proteins (wt, S164A, D165A, S166A, D168A) in 50 mM HEPES buffer (pH 7.4) were mixed with SYPRO Orange (Sigma-Aldrich, Vienna, Austria) to final concentrations of 4 µM HpHtrA and 7 × SYPRO Orange in a 96-well PCR plate. […] Fluorescence data was collected using an Applied Bioscience StepOne Plus PCR cycler (Thermo Fisher Scientific, Schwerte, Germany) during a temperature ramp from 25–95 °C (0.5 °C per min) with a 4 min hold at 25 °C and 95 °C. SYPRO Orange binds to exposed hydrophobic regions within the denatured HpHtrA proteins, which increases the fluorescence of the dye[57],[58]. The fluorescence emission signal can then be used to determine the melting temperature of the protein, which is located at the infliction point of the fluorescence signal curve. The experiment was performed in triplicates.

[2] = molecular target: T2, HpHtrA D165A (Helicobacter pylori, UniProt G2J5T2, D165A); details: MST
T2 sequence (G2J5T2 18-475 D165A): T1 sequence (G2J5T2 18-475 S164A) with A147S, D148A
Description: (§1) Synthesis of 2-Abz-AQRVAFY(3-NO2)-NH2. The peptide was assembled manually on a 20 µmol scale.
(§2) The side-chain protecting groups were Pbf for Arg, and Trt for Gln. Fmoc deprotection was carried out with 25% piperidine in DMF/NMP (80:20, v/v) for 3 min, and 12.5% piperidine in DMF/NMP (80:20, v/v) for 12 min. The double couplings (2x45 min) were accomplished with the mixture Fmoc-AA-OH/HOBt/HBTU/DIPEA (5:5:4.8:10 equiv.). 2 -Boc-Abz-OH was coupled with the same protocol.
(§3) Afterwards, the peptidyl-resin was treated with 25% piperidine in DMF/NMP (80:20, v/v) (2x12 min) to deacylate the 3-nitro-tyrosine side chain. The peptide was simultaneously cleaved from the resin and deprotected by using the mixture TFA/H2O/TIA/EDT/TIS (90:3:1:3:3; Vtot = 1 ml) for about 3 h, precipitated from ice-cold diethyl ether, recovered by centrifugation at 4 °C for 6 min, washed four times with ice-cold diethyl ether, and dried in vacuo. The solid was dissolved in water and lyophilized.
(§4) Microscale thermophoresis .
(§5) D168A, MicroScale Thermophoresis (MST) analysis was performed using the Monolith NT.115 (NanoTemper Technologies). HpHtrA proteases were labeled with red fluorescent dye NT -650-NHS (amine reactive) according to the manufacturer’s protocol. Remaining free dye was removed by buffer exchange column chromatography and proteins were eluted in 50 mM Tris pH 7.4, 150 mM NaCl, 0.04% Tween. 5 nM of labelled HpHtrA was incubated for 15 minutes at RT with decreasing […]
(§6) Measurement was performed with premium treated capillaries (NanoTemper Technologies) and the Monolith NT.115 Microscale Thermophoresis device. Data analysis was performed with MO.Affinity Analysis v2.3 (NanoTemper Technologies) and GraphPad Prism Software (Version 8.0.2). Three independent experiments were […]

[3] = molecular target: T3, HpHtrA S166A (Helicobacter pylori, UniProt G2J5T2, S166A); details: MST
T3 sequence (G2J5T2 18-475 S166A): T1 sequence (G2J5T2 18-475 S164A) with A147S, S149A
Description: as §1, §2, §3, §4, §5, §6

Row | SMILES | thermal destabilization (ΔTm) ([1]; higher concentrations of ion) | thermal stabilization (ΔTm) ([1]; low/increasing concentrations of ion) | Response amplitude [2] | Response amplitude [3]
1 | [Cu+2] [Cu^++, CuCl2] | destabilized | stabilized | – | –
2 | [Zn+2] [Zn^++, ZnCl2] | – | – | 3.6 | 3.9

Source: article PMC7324608 (Scientific Reports, 2020)
